We go through 18 molecules from patent US20090304692A1, “TRIAZINE COMPOUNDS AS PI3 KINASE AND MTOR INHIBITORS” (Wyeth, priority 2008, published 2009).

Read-outs that look alike come from different tables or passages of the source.

In test [1] the target is Human mTOR (FLAG-TOR) (Homo sapiens, UniProt P42345). Kind of test: mTOR kinase assay (DELFIA format, purified enzyme). Particulars: read-out: IC50 mTOR. The format is biochemical.
Test [2] addresses PI3K-α (Homo sapiens, UniProt P42336). Kind of test: PI3K-alpha fluorescence polarization assay. (Fluorescence polarisation rises when a labelled molecule tumbles more slowly, as on binding a larger partner.)
In test [3] the test system is human prostate LNCap tumor cell line. Kind of test: In vitro cell culture growth assay (MTS), LNCap. Particulars: read-out: IC50 LNCap.

Sequence of Human mTOR (FLAG-TOR) (P42345 1360-2549 limits assumed): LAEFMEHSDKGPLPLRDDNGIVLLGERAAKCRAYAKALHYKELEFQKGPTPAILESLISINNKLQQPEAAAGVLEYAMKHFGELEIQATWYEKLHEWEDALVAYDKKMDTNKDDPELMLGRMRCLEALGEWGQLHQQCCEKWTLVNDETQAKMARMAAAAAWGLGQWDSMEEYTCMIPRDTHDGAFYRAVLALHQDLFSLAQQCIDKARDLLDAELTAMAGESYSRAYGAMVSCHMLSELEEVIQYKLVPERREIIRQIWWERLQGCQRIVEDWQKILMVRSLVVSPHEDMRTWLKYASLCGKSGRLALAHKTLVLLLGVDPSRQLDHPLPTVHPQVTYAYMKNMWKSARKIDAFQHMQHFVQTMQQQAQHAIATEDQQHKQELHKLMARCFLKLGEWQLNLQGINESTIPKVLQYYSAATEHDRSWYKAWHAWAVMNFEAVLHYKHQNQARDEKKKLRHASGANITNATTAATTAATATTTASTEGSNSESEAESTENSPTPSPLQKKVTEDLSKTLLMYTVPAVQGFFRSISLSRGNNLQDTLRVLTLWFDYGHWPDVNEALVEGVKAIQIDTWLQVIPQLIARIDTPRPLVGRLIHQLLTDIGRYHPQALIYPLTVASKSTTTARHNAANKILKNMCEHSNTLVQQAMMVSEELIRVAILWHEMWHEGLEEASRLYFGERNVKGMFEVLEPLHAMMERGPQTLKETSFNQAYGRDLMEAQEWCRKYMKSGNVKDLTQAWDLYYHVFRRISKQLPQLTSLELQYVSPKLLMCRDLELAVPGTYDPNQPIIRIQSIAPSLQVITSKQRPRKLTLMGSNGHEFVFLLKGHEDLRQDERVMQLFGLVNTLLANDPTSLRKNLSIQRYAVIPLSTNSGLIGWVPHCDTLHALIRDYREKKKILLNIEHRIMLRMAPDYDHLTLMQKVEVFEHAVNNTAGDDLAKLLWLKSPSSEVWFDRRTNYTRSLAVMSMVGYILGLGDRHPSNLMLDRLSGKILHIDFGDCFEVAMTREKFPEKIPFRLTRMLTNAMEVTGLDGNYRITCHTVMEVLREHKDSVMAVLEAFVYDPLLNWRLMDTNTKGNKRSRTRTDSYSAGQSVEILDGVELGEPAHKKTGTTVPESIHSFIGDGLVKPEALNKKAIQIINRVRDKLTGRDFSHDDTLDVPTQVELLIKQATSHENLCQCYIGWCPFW
Sequence of PI3K-α (P42336 whole entry, species assumed): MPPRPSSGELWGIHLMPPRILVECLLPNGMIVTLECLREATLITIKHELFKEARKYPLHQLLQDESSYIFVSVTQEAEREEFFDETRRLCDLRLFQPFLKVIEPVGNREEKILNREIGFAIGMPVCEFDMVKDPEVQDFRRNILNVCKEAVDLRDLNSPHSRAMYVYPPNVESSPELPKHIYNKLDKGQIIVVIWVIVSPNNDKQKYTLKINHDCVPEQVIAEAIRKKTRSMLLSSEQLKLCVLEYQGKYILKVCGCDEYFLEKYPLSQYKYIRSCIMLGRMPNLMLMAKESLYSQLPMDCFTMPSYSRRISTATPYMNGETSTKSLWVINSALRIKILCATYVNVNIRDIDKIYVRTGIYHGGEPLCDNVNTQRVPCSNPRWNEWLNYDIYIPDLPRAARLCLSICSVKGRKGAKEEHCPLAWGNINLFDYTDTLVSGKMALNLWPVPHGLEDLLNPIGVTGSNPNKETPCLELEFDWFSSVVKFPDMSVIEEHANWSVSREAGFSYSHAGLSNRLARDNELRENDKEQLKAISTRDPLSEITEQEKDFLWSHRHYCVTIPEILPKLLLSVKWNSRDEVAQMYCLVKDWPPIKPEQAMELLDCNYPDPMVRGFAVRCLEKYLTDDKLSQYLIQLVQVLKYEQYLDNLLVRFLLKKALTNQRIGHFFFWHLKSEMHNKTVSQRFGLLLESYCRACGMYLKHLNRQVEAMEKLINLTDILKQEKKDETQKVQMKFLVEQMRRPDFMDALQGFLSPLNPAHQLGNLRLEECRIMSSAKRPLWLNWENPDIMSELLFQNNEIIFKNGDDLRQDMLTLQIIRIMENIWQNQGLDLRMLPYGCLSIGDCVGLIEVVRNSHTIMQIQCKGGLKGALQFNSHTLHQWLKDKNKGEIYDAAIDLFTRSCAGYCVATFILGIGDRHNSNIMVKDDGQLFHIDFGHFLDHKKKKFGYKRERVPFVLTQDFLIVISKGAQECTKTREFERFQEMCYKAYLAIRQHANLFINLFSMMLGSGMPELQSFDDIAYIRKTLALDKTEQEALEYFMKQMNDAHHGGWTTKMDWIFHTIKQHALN
Sequence of PI3K-α (P27986 whole entry partner, species assumed): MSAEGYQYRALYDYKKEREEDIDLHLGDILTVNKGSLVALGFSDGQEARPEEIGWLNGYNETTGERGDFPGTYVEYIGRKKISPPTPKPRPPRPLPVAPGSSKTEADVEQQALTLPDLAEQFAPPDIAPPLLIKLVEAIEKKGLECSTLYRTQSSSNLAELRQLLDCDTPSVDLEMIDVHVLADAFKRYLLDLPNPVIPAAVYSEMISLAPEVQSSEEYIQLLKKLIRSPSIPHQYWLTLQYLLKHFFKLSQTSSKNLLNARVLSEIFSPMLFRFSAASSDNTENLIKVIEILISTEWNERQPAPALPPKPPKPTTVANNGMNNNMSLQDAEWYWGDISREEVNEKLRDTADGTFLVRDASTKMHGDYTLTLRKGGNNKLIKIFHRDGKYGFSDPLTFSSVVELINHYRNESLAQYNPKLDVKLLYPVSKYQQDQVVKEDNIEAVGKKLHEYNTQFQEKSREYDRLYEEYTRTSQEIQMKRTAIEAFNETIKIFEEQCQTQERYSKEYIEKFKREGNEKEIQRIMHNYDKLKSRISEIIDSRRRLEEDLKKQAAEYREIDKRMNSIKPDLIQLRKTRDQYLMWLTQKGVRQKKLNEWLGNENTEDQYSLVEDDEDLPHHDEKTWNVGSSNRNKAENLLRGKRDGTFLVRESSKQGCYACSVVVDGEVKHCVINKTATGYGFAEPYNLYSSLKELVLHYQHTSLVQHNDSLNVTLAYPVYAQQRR

As a reminder, the IC50 is the concentration that gives 50% inhibition. For the molecule `CNC(=O)Nc1ccc(-c2nc(N3CC4CCC(C3)O4)nc(N3CC4CCC(C3)O4)n2)cc1` [Example 26, 1-[4-(4,6-di-8-oxa-3-azabicyclo[3.2.1]oct-3-yl-1,3,5-triazin-2-yl)phenyl]-3-methylurea], the IC50 was 0.0025 µM in test [1]; 0.68 µM in test [2] (read-out: IC50 PI3Kα); 0.19 µM in test [3] (Homo sapiens, LNCaP, 72 h).
Regarding `O=C(O)CNC1CCN(c2nc(-c3ccc(NC(=O)Nc4ccncc4)cc3)nc(N3CC4CCC(C3)O4)n2)CC1` [Example 128, 2-(1-(4-(8-oxa-3-azabicyclo[3.2.1]octan-3-yl)-6-(4-(3-pyridin-4-ylureido)phenyl)-1,3,5-triazin-2-yl)piperidin-4-ylamino)acetic acid], the IC50 was determined as 0.031 µM in test [1]; 1.33 µM in test [2] (read-out: IC50 PI3Kα); 30 µM in test [3] (Homo sapiens, LNCaP, 72 h).
Turning to `CN1CCN(c2ccc(NC(=O)Nc3ccc(-c4nc(-c5ccc(NC(=O)NC6CC6)cc5)nc(N5CC6CCC(C5)O6)n4)cc3)cc2)CC1` [Example 146, 1-cyclopropyl-3-(4-{4-[4-({[4-(4-methylpiperazin-1-yl)phenyl]carbamoyl}amino)phenyl]-6-(8-oxa-3-azabicyclo[3.2.1]oct-3-yl)-1,3,5-triazin-2-yl}phenyl)urea], the concentration for half-maximal inhibition (IC50) in test [1] was 0.003 µM; in test [2] it was over 10 µM; in test [3] (Homo sapiens, LNCaP, 72 h), 0.005 µM.
Take `O=C(Nc1ccc(-c2nc(NCCO)nc(N3CC4CCC(C3)O4)n2)cc1)Nc1cccnc1` [Example 153, 1-(4-{4-[(2-hydroxyethyl)amino]-6-(8-oxa-3-azabicyclo[3.2.1]oct-3-yl)-1,3,5-triazin-2-yl}phenyl)-3-pyridin-3-ylurea]: the IC50 in test [1] is 0.015 µM; in test [2] (read-out: IC50 PI3Kα) it was 0.868 µM; in test [3] (Homo sapiens, LNCaP, 72 h) it was 4.2 µM.
In the same order, the values of `NCCCNc1nc(-c2ccc(NC(=O)Nc3cccnc3)cc2)nc(N2CC3CCC(C2)O3)n1` [Example 156, 1-(4-{4-[(3-aminopropyl)amino]-6-(8-oxa-3-azabicyclo[3.2.1]oct-3-yl)-1,3,5-triazin-2-yl}phenyl)-3-pyridin-3-ylurea] are 0.053 µM, 0.746 µM and 22 µM.
With `CN1CCCN(c2nc(-c3ccc(NC(=O)Nc4cccnc4)cc3)nc(N3CC4CCC(C3)O4)n2)C1` [Example 172, 1-{4-[4-(3-methyltetrahydropyrimidin-1(2H)-yl)-6-(8-oxa-3-azabicyclo[3.2.1]oct-3-yl)-1,3,5-triazin-2-yl]phenyl}-3-pyridin-3-ylurea], the IC50 in test [1] worked out at 0.008 µM; in test [2] (read-out: IC50 PI3Kα), 0.435 µM; in test [3] (Homo sapiens, LNCaP, 72 h), 9.5 µM.
On the same counts, the results for `O=C(Nc1ccc(-c2nc(OCCN3CCCCC3)nc(N3CC4CCC(C3)O4)n2)cc1)Nc1cccnc1` [Example 173, 1-{4-[4-(8-oxa-3-azabicyclo[3.2.1]oct-3-yl)-6-(2-piperidin-1-ylethoxy)-1,3,5-triazin-2-yl]phenyl}-3-pyridin-3-ylurea] are 0.084 µM, 1.21 µM and 2.5 µM.
Turning to `O=C(Nc1ccc(-c2nc(NC(CO)CO)nc(N3CC4CCC(C3)O4)n2)cc1)Nc1cccnc1` [Example 204, 1-{4-[4-{[2-hydroxy-1-(hydroxymethyl)ethyl]amino}-6-(8-oxa-3-azabicyclo[3.2.1]oct-3-yl)-1,3,5-triazin-2-yl]phenyl}-3-pyridin-3-ylurea], the IC50 turned out to be 0.0035 µM in test [1] and 6 µM in test [3] (Homo sapiens, LNCaP, 72 h).
Regarding `O=C(Nc1ccc(-c2nc(N(CCO)CCO)nc(N3CC4CCC(C3)O4)n2)cc1)Nc1cccnc1` [Example 205, 1-(4-{4-[bis(2-hydroxyethyl)amino]-6-(8-oxa-3-azabicyclo[3.2.1]oct-3-yl)-1,3,5-triazin-2-yl}phenyl)-3-pyridin-3-ylurea], the IC50 in test [1] amounted to 0.002 µM; in test [3] (Homo sapiens, LNCaP, 72 h), 0.4 µM.
On to `O=C(Nc1ccc(-c2nc(N3CC4CCC(C3)O4)nc(N3C[C@@H]4C[C@H]3CN4)n2)cc1)Nc1cccnc1` [Example 206, 1-(4-{4-[(1S,4S)-2,5-diazabicyclo[2.2.1]hept-2-yl]-6-(8-oxa-3-azabicyclo[3.2.1]oct-3-yl)-1,3,5-triazin-2-yl}phenyl)-3-pyridin-3-ylurea], for which the IC50 in test [1] was 0.056 µM; in test [3] (Homo sapiens, LNCaP, 72 h), 5.1 µM.
In the same order, the values of `CN1CCN(c2ccc(Nc3nc(-c4ccc(NC(=O)Nc5cccnc5)cc4)nc(N4CC5CCC(C4)O5)n3)cc2)CC1` [Example 207, 1-{4-[4-{[4-(4-methylpiperazin-1-yl)phenyl]amino}-6-(8-oxa-3-azabicyclo[3.2.1]oct-3-yl)-1,3,5-triazin-2-yl]phenyl}-3-pyridin-3-ylurea] are 0.00084 µM and 0.0333 µM.
On the same counts, the results for `O=C(Nc1ccc(-c2nc(Nc3ccc(N4CCNCC4)cc3)nc(N3CC4CCC(C3)O4)n2)cc1)Nc1cccnc1` [Example 208, 1-(4-{4-(8-oxa-3-azabicyclo[3.2.1]oct-3-yl)-6-[(4-piperazin-1-ylphenyl)amino]-1,3,5-triazin-2-yl}phenyl)-3-pyridin-3-ylurea] are 0.0005 µM and 0.05 µM.
Regarding `CC(C)Nc1nc(-c2ccc(NC(=O)NC3CC3)cc2)nc(N2CC3CCC(C2)O3)n1` [Example 213, 1-cyclopropyl-3-(4-{4-[(1-methylethyl)amino]-6-(8-oxa-3-azabicyclo[3.2.1]oct-3-yl)-1,3,5-triazin-2-yl}phenyl)urea], the IC50 was 0.0095 µM in test [1]; 5.28 µM in test [2] (read-out: IC50 PI3Kα); 0.42 µM in test [3] (Homo sapiens, LNCaP, 72 h).
Regarding `CN1CCN(c2ccc(NC(=O)Nc3ccc(-c4nc(N5CC6CCC(C5)O6)nc(N5C6CCC5COC6)n4)cc3)cc2)CC1` [Example 303, 1-[4-(4-methylpiperazin-1-yl)phenyl]-3-{4-[4-(3-oxa-8-azabicyclo[3.2.1]oct-8-yl)-6-(8-oxa-3-azabicyclo[3.2.1]oct-3-yl)-1,3,5-triazin-2-yl]phenyl}urea], the IC50 in test [1] was determined as 0.017 µM; in test [3] (Homo sapiens, LNCaP, 72 h), 0.0008 µM.
On the same counts, the results for `CN(C)CCOc1ccc(NC(=O)Nc2ccc(-c3nc(N4CCSCC4)nc(N4C5CCC4COC5)n3)cc2)cc1` [Example 365, 1-(4-(4-(3-oxa-8-azabicyclo[3.2.1]octan-8-yl)-6-thiomorpholino-1,3,5-triazin-2-yl)phenyl)-3-(4-(2-(dimethylamino)ethoxy)phenyl)urea] are 0.01 µM and 0.28 µM.
On to `CNC(=O)Nc1ccc(-c2nc(-c3ccc(NC(=O)Nc4cccc(C(N)=O)c4)cc3)nc(N3CCOCC3)n2)cc1` [Example 466, 3-({[4-(4-{4-[(methylcarbamoyl)amino]phenyl}-6-morpholin-4-yl-1,3,5-triazin-2-yl)phenyl]carbamoyl}amino) benzamide], for which the IC50 in test [1] amounted to 0.001 µM; in test [3] (MTS cell growth assay, three days after drug treatment, LNCap cells), 0.42 µM.
On to `CNC(=O)Nc1ccc(-c2nc(-c3ccc(NC(=O)Nc4cccnc4)cc3)nc(N3CCOCC3)n2)cc1` [Example 467, 1-methyl-3-[4-(4-morpholin-4-yl-6-{4-[(pyridin-3-ylcarbamoyl)amino]phenyl}-1,3,5-triazin-2-yl)phenyl]urea], for which the IC50 in test [1] is under 0.001 µM; in test [3] (Homo sapiens, LNCaP, 72 h), 0.17 µM.
In the same order, the values of `CNC(=O)Nc1ccc(-c2nc(-c3ccc(NC(=O)Nc4ccncc4)cc3)nc(N3CCOCC3)n2)cc1` [Example 468, 1-methyl-3-[4-(4-morpholin-4-yl-6-{4-[(pyridin-4-ylcarbamoyl)amino]phenyl}-1,3,5-triazin-2-yl)phenyl]urea] are under 0.001 µM and 0.05 µM.
